Data from patent EP2970215B1, “PYRROLIDINE DERIVATIVES, PHARMACEUTICAL COMPOSITIONS CONTAINING THEM, AND THEIR USE IN THERAPY” (AbbVie Deutschland GmbH & Co. KG, priority 2013, dated 2014).

Each molecule was assayed against T1, human GlyT1c transporter (Homo sapiens, UniProt P48067) (assay: Radioligand binding assay using recombinant CHO cell membranes expressing human GlyT1). Details: radioligand binding to human GlyT1c transporter-expressing membranes.
T1 construct: expressed in transfected cells; host or cells: CHO cells (recombinant; line hGlyT1c_5_CHO is named for the uptake assay)
T1 sequence (P48067 1-706): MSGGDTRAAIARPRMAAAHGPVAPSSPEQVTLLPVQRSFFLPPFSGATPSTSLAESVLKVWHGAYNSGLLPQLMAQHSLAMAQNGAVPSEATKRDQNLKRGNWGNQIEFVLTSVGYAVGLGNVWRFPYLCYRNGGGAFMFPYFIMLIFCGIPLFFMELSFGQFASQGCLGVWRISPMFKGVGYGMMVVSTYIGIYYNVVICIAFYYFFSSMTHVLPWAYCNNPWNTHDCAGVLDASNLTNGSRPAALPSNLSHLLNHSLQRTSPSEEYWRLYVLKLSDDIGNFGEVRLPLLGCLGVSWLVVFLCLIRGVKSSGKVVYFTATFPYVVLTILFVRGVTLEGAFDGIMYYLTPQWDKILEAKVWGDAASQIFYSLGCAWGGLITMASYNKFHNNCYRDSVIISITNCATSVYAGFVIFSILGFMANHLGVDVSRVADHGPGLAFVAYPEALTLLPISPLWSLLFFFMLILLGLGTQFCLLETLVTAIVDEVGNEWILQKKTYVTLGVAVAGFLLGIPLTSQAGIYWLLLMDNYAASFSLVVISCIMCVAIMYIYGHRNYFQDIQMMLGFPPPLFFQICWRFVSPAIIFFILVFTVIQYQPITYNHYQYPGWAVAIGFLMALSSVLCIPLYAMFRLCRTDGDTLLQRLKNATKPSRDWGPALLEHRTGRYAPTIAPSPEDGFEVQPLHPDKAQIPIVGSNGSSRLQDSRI
Text: 2. Radioligand binding assays using recombinant CHO cell membranes expressing human GlyT1: […]

Question: `O=S(=O)(c1cccnc1)N1CC(Nc2ccc(F)c(F)c2)C(c2ccccc2)C1` (stereo not shown) [Example 477, N-(3,4-difluorophenyl)-4-phenyl-1-(pyridin-3-ylsulfonyl)pyrrolidin-3-amine] was tested. Which Ki did it give?
Answer: ≤ 10 µM

Question: Which Ki does the source give for `Cc1cccc(OC[C@@H]2CN(S(=O)(=O)c3cn(C)cn3)C[C@H]2c2ccc(F)cc2)c1` (relative stereo) [Example 296, 4-({trans-3-(4-fluorophenyl)-4-[(3-methylphenoxy)methyl]pyrrolidin-1-yl}sulfonyl)-1-methyl-1H-imidazole] here?
Answer: ≤ 0.1 µM

Question: `Cn1cnc(S(=O)(=O)N2C[C@@H](NCc3ccc(F)cc3)[C@H](c3ccc(F)cc3)C2)c1` (relative stereo) [Example 156, trans-N-(4-fluorobenzyl)-4-(4-fluorophenyl)-1-[(1-methyl-1H-imidazol-4-yl)sulfonyl]pyrrolidin-3-amine] was tested. Which Ki did it give?
Answer: ≤ 0.1 µM

Question: For `Cn1cc(S(=O)(=O)N2C[C@@H](NC(=O)c3cccc(C(F)(F)F)c3Cl)[C@H](c3ccccc3)C2)cn1` (relative stereo) [Example 43, 2-chloro-N-{trans-1-[(1-methyl-1H-pyrazol-4-yl)sulfonyl]-4-phenylpyrrolidin-3-yl}-3-(trifluoromethyl)benzamide], which Ki is on record?
Answer: ≤ 10 µM

Question: Which Ki does the source give for `Cn1cnc(S(=O)(=O)N2C[C@@H](Nc3ccccn3)[C@H](c3ccc(F)cc3)C2)c1` (relative stereo) [Example 178, N-{trans-4-(4-fluorophenyl)-1-[(1-methyl-1H-imidazol-4-yl)sulfonyl]pyrrolidin-3-yl}pyridin-2-amine] here?
Answer: ≤ 1 µM

Question: `Cn1cnc(S(=O)(=O)N2C[C@@H](Nc3ccc(F)c(C(F)(F)F)c3)[C@H](c3ccccc3Cl)C2)c1` (relative stereo) [Example 258, trans-4-(2-chlorophenyl)-N-[4-fluoro-3-(trifluoromethyl)phenyl]-1-[(1-methyl-1H-imidazol-4-yl)sulfonyl]pyrrolidin-3-amine] was tested. Which Ki did it give?
Answer: ≤ 1 µM

Question: For `Cn1cnc(S(=O)(=O)N2CC(Cc3cccc(Cl)c3)C(c3ccc(F)cc3)C2)c1` (stereo not shown) [Example 182, 4-{[3-(3-chlorobenzyl)-4-(4-fluorophenyl)pyrrolidin-1-yl]sulfonyl}-1-methyl-1H-imidazole], which Ki is on record?
Answer: ≤ 0.1 µM

Question: With `Cn1cnc(S(=O)(=O)N2C[C@@H](COc3ccccc3)[C@H](c3ccc(F)cc3)C2)c1` (relative stereo) [Example 245, 4-{[trans-3-(4-fluorophenyl)-4-(phenoxymethyl)pyrrolidin-1-yl]sulfonyl}-1-methyl-1H-imidazole] as the molecule, how does the Ki read?
Answer: ≤ 0.1 µM

Question: `CC(C)c1cc(N[C@H]2CN(S(=O)(=O)c3cn(C)cn3)C[C@@H]2c2ccc(F)cc2)ncn1` [Example 614, N-{(3R,4S)-4-(4-fluorophenyl)-1-[(1-methyl-1H-imidazol-4-yl)sulfonyl]pyrrolidin-3-yl}-6-(propan-2-yl)pyrimidin-4-amine] was tested. Which Ki did it give?
Answer: ≤ 1 µM

Question: How did the Ki turn out when `Cn1cnc(S(=O)(=O)N2C[C@@H](Nc3cccc(F)n3)[C@H](c3ccccc3)C2)c1` (relative stereo) [Example 235, 6-fluoro-N-{trans-1-[(1-methyl-1H-imidazol-4-yl)sulfonyl]-4-phenylpyrrolidin-3-yl}pyridin-2-amine] was run?
Answer: ≤ 10 µM

Question: With `Cn1cnc(S(=O)(=O)N2C[C@H](NCc3ccc(C(F)(F)F)o3)[C@@H](c3ccc(F)cc3)C2)c1` [Example 391, (3R,4S)-4-(4-fluorophenyl)-1-[(1-methyl-1H-imidazol-4-yl)sulfonyl]-N-{[5-(trifluoromethyl)furan-2-yl]methyl}pyrrolidin-3-amine] as the molecule, how does the Ki read?
Answer: ≤ 0.1 µM

Question: How did the Ki turn out when `Cn1cnc(S(=O)(=O)N2C[C@@H](COc3ccc(C(F)(F)F)cc3Cl)[C@H](c3ccc(F)cc3)C2)c1` (relative stereo) [Example 294, 4-{[trans-3-{[2-chloro-4-(trifluoromethyl)phenoxy]methyl}-4-(4-fluorophenyl)pyrrolidin-1-yl]sulfonyl}-1-methyl-1H-imidazole] was run?
Answer: ≤ 0.01 µM

Question: Which Ki does the source give for `Cn1cnc(S(=O)(=O)N2C[C@H](NCc3ccc(C(F)(F)F)cc3Cl)[C@@H](c3ccc(F)cc3)C2)c1` [Example 322, (3R,4S)-N-[2-chloro-4-(trifluoromethyl)benzyl]-4-(4-fluorophenyl)-1-[(1-methyl-1H-imidazol-4-yl)sulfonyl]pyrrolidin-3-amine] here?
Answer: ≤ 0.01 µM

Question: `Cn1cnc(S(=O)(=O)N2C[C@@H](Nc3ccc(C(F)(F)F)c(Cl)c3)[C@H](c3ccc(F)cc3)C2)c1` (relative stereo) [Example 173, trans-N-[3-chloro-4-(trifluoromethyl)phenyl]-4-(4-fluorophenyl)-1-[(1-methyl-1H-imidazol-4-yl)sulfonyl]pyrrolidin-3-amine] was tested. Which Ki did it give?
Answer: ≤ 1 µM

Question: `CCCCC(=O)N[C@H]1CN(S(=O)(=O)c2cn(C)cn2)C[C@@H]1c1ccccc1` [Example 549, N-{(3R,4S)-1-[(1-methyl-1H-imidazol-4-yl)sulfonyl]-4-phenylpyrrolidin-3-yl}pentanamide] was tested. Which Ki did it give?
Answer: ≤ 10 µM

Question: For `Cc1cccc(NC(=O)[C@@H]2CN(S(=O)(=O)c3cn(C)cn3)C[C@H]2c2ccc(F)cc2)c1` (relative stereo) [Example 316, trans-4-(4-fluorophenyl)-1-[(1-methyl-1H-imidazol-4-yl)sulfonyl]-N-(3-methylphenyl)pyrrolidine-3-carboxamide], which Ki is on record?
Answer: ≤ 1 µM

Question: How did the Ki turn out when `CCCCOC(=O)N[C@H]1CN(S(=O)(=O)c2cn(C)cn2)C[C@@H]1c1ccccc1` [Example 544, butyl {(3R,4S)-1-[(1-methyl-1H-imidazol-4-yl)sulfonyl]-4-phenylpyrrolidin-3-yl}carbamate] was run?
Answer: ≤ 10 µM

Question: With `Cn1cnc(S(=O)(=O)N2C[C@@H](Nc3cc(C(F)(F)F)ncn3)[C@H](c3ncccc3F)C2)c1` (relative stereo) [Example 770, N-{Trans-4-(3-fluoropyridin-2-yl)-1-[(1-methyl-1H-imidazol-4-yl)sulfonyl]pyrrolidin-3-yl}-6-(trifluoromethyl)pyrimidin-4-amine] as the molecule, how does the Ki read?
Answer: ≤ 1 µM

Question: How did the Ki turn out when `Cn1cnc(S(=O)(=O)N2C[C@H](Nc3cc(OCC(F)(F)F)ccn3)[C@@H](c3ccc(F)cc3)C2)c1` [Example 807, N-{(3R,4S)-4-(4-fluorophenyl)-1-[(1-methyl-1H-imidazol-4-yl)sulfonyl]pyrrolidin-3-yl}-4-(2,2,2-trifluoroethoxy)pyridin-2-amine] was run?
Answer: ≤ 0.01 µM

Question: How did the Ki turn out when `Cc1nn(C)c(Cl)c1S(=O)(=O)N1CC(Nc2ccc(F)c(F)c2)C(c2ccccc2)C1` (stereo not shown) [Example 486, 1-[(5-chloro-1,3-dimethyl-1H-pyrazol-4-yl)sulfonyl]-N-(3,4-difluorophenyl)-4-phenylpyrrolidin-3-amine] was run?
Answer: ≤ 10 µM

Question: `Cn1cnc(S(=O)(=O)N2C[C@H](Nc3cc(C(F)(F)F)c(Cl)cn3)[C@@H](c3ccc(F)cc3)C2)c1` [Example 617, 5-chloro-N-{(3R,4S)-4-(4-fluorophenyl)-1-[(1-methyl-1H-imidazol-4-yl)sulfonyl]pyrrolidin-3-yl}-4-(trifluoromethyl)pyridin-2-amine] was tested. Which Ki did it give?
Answer: ≤ 0.01 µM

Question: How did the Ki turn out when `COc1ccc(N[C@@H]2CN(S(=O)(=O)c3cn(C)cn3)C[C@H]2c2ccccc2)cc1C#N` (relative stereo) [Example 100, 2-methoxy-5-({trans-1-[(1-methyl-1H-imidazol-4-yl)sulfonyl]-4-phenylpyrrolidin-3-yl}amino)benzonitrile] was run?
Answer: ≤ 10 µM

Question: For `Cc1csc(CN[C@H]2CN(S(=O)(=O)c3cn(C)cn3)C[C@@H]2c2ccccc2)n1` [Example 454, (3R,4S)-1-[(1-methyl-1H-imidazol-4-yl)sulfonyl]-N-[(4-methyl-1,3-thiazol-2-yl)methyl]-4-phenylpyrrolidin-3-amine], which Ki is on record?
Answer: ≤ 10 µM

Question: Which Ki does the source give for `Cn1cnc(S(=O)(=O)N2C[C@H](NC(=O)NCc3ccccc3)[C@@H](c3ccc(F)cc3)C2)c1` [Example 742, 1-benzyl-3-{(3R,4S)-4-(4-fluorophenyl)-1-[(1-methyl-1H-imidazol-4-yl)sulfonyl]pyrrolidin-3-yl}urea] here?
Answer: ≤ 1 µM

Question: With `Cn1cnc(S(=O)(=O)N2C[C@H](Nc3ccc(F)cn3)[C@@H](c3ccc(F)cc3)C2)c1` [Example 737, 5-fluoro-N-{(3R,4S)-4-(4-fluorophenyl)-1-[(1-methyl-1H-imidazol-4-yl)sulfonyl]pyrrolidin-3-yl}pyridin-2-amine] as the molecule, how does the Ki read?
Answer: ≤ 0.1 µM

Same assay, conditions: radioligand binding, recombinant CHO cell membranes expressing human GlyT1c

Question: Which Ki does the source give for `CCCCCCNC1CN(S(=O)(=O)c2cn(C)cn2)CC1[C@@H]1CCCO1` (stereo partly drawn) [Example 821, N-hexyl-1-[(1-methyl-1H-imidazol-4-yl)sulfonyl]-4-[(2S)-tetrahydrofuran-2-yl]pyrrolidin-3-amine] here?
Answer: ≤ 10 µM

Question: How did the Ki turn out when “2-[(1-methyl-1H-imidazol-4-yl)sulfonyl]-N-[4-(trifluoromethyl)pyridin-2-yl]-2,3,3a,8-tetrahydroindeno[1,2-c]pyrrol-8a(1H)-amine [Example 892]” was run?
Answer: ≤ 0.1 µM

Question: `Cn1cnc(S(=O)(=O)N2C[C@@H](Nc3cccc(Cl)c3)[C@H](C3CCOC3)C2)c1` (relative stereo) [Example 829, trans-N-(3-chlorophenyl)-1-[(1-methyl-1H-imidazol-4-yl)sulfonyl]-4-(tetrahydrofuran-3-yl)pyrrolidin-3-amine] was tested. Which Ki did it give?
Answer: ≤ 10 µM
